Drawing on ChEMBL document CHEMBL1152944, “Design, synthesis and biological evaluation of novel triazole, urea and thiourea derivatives of quinoline against Mycobacterium tuberculosis” (Bioorg Med Chem, 2009), this text covers inhibition, MIC and viability for 20 compounds.

≈ marks a conversion by molar mass, not a printed value.

Series [1] concerns Mycobacterium tuberculosis. The series can be described thus: Antimycobacterial activity against Mycobacterium tuberculosis H37Rv ATCC 27294 at 6.25 ug/mL by BACTEC 460 radiometric assay. The series is classed as functional.
The test system of series [2] is Mycobacterium tuberculosis. The experiment in a line: Antimycobacterial activity against Mycobacterium tuberculosis H37Rv ATCC 27294. The series is classed as functional.
A short description of series [3]: Cytotoxicity against mouse macrophage cells assessed as cell viability at 10 ug/100 ul after 24 hrs by MTT assay. The series is classed as cell-based. To be noted: read-out: Activity.
Series [4] is described as follows: Cytotoxicity against mouse macrophage cells assessed as cell viability at 10 ug/100 ul after 72 hrs by MTT assay. The series is classed as cell-based. To be noted: read-out: Activity. (In general: Tetrazolium assays rely on reduction of a dye to a coloured formazan, in cell work by metabolically active cells.)
Series [5] can be described thus: Cytotoxicity against mouse macrophage cells assessed as cell viability at 1 ug/100 ul after 24 hrs by MTT assay. To be noted: read-out: Activity. The class given is cell-based.
Series [6] is described as follows: Cytotoxicity against mouse macrophage cells assessed as cell viability at 1 ug/100 ul after 72 hrs by MTT assay. The class given is cell-based. To be noted: read-out: Activity.

Turning to `CC(O)c1cc(F)ccc1Oc1nc2ccc(NC(=O)Nc3cccc([N+](=O)[O-])c3)cc2cc1Cc1ccccc1` (stereo not given), the inhibition (usually the drop in the measured response relative to a control, in per cent) at 6.25 µg/mL in series [1] is 98%. 6.25 µg/mL (≈ 11.3 µM) was the least that counted as inhibitory in series [2] (MIC). For the same compound, in series [3], the viability at 24 h, 10 ug/100 ul worked out at 87%. For the same compound, in series [4], the viability at 72 h, 10 ug/100 ul stood at 53%. Moreover, in series [5], the viability at 24 h, 1 ug/100 ul is 91%. In addition, the viability at 72 h, 1 ug/100 ul in series [6] amounted to 55%. Regarding `COc1cccc(-c2ccn(CC(O)c3cc(F)ccc3Oc3nc4ccc([N+](=O)[O-])cc4cc3Cc3ccccc3)n2)c1` (stereo not given), in series [1], at 6.25 µg/mL the inhibition was 7%. `COc1ccc(-c2ccn(CC(O)c3cc(F)ccc3Oc3nc4ccc([N+](=O)[O-])cc4cc3Cc3ccccc3)n2)cc1` (stereo not given): the inhibition at 6.25 µg/mL in series [1] amounted to 5%.

`CC(c1cc(F)ccc1Oc1nc2ccc(-n3cc(-c4ccccc4)nn3)cc2cc1Cc1ccccc1)N1CCCCC1` (stereo not given) yielded an inhibition at 6.25 µg/mL in series [1] of 81%. In series [1], `O=[N+]([O-])c1ccc2nc(Oc3ccc(F)cc3C(O)CN3CCOCC3)c(Cc3ccccc3)cc2c1` (stereo not given) gave an inhibition at 6.25 µg/mL of 29%. The same measure, in the same setting: in the case of `COc1ccccc1NC(=O)Nc1ccc2nc(Oc3ccc(F)cc3C(C)O)c(Cc3ccccc3)cc2c1` (stereo not given) it was 8%; in that of `COc1cccc(NC(=S)Nc2ccc3nc(Oc4ccc(F)cc4C(C)O)c(Cc4ccccc4)cc3c2)c1` (stereo not given), 22%; in that of `COc1ccc(NC(=O)Nc2ccc3nc(Oc4ccc(F)cc4C(C)O)c(Cc4ccccc4)cc3c2)cc1` (stereo not given), 25%. In turn, `CC(c1cc(F)ccc1Oc1nc2ccc(-n3cc(-c4ccccc4)nn3)cc2cc1Cc1ccccc1)N1CCN(c2ccccn2)CC1` (stereo not given) displayed an inhibition at 6.25 µg/mL in series [1] of 29%. The same measure, in the same setting: in the case of `O=[N+]([O-])c1ccc2nc(Oc3ccc(F)cc3C(O)Cn3ccc(-c4ccc(C(F)(F)F)cc4)n3)c(Cc3ccccc3)cc2c1` (stereo not given) it was 6%.

Take `CC(c1cc(F)ccc1Oc1nc2ccc(-n3cc(-c4ccccc4)nn3)cc2cc1Cc1ccccc1)n1ccnc1` (stereo not given): the inhibition at 6.25 µg/mL in series [1] was found to be 96%. Moreover, the MIC (as a rule, the smallest concentration in the dilution series that meets the test's criterion for growth inhibition) in series [2] was found to be 3.12 µg/mL (≈ 5.51 µM). For the same compound, the viability at 24 h, 10 ug/100 ul in series [3] came to 88%. Also, the viability at 72 h, 10 ug/100 ul in series [4] turned out to be 58%. In series [5], the viability at 24 h, 1 ug/100 ul is 100%. For the same compound, in series [6], the viability at 72 h, 1 ug/100 ul was determined as 61%. With `O=[N+]([O-])c1ccc2nc(Oc3ccc(F)cc3C(O)Cn3ccc(-c4cccc(Cl)c4)n3)c(Cc3ccccc3)cc2c1` (stereo not given), at 6.25 µg/mL the inhibition in series [1] was 0%. Same read-out and setting: in the case of `O=[N+]([O-])c1ccc2nc(Oc3ccc(F)cc3C(O)CN3CCNCC3)c(Cc3ccccc3)cc2c1` (stereo not given) it was 20%; in that of `O=[N+]([O-])c1ccc2nc(Oc3ccc(F)cc3C(O)Cn3cccn3)c(Cc3ccccc3)cc2c1` (stereo not given), 53%; in that of `CC(c1cc(F)ccc1Oc1nc2ccc(-n3cc(-c4ccccc4)nn3)cc2cc1Cc1ccccc1)N1CCN(c2ccc(F)cc2)CC1` (stereo not given), 20%.

`O=[N+]([O-])c1ccc2nc(Oc3ccc(F)cc3C(O)Cn3ccnc3)c(Cc3ccccc3)cc2c1` (stereo not given) returned an inhibition at 6.25 µg/mL in series [1] of 58%. In series [1], `COc1cccc(NC(=O)Nc2ccc3nc(Oc4ccc(F)cc4C(C)O)c(Cc4ccccc4)cc3c2)c1` (stereo not given) registered an inhibition at 6.25 µg/mL of 94%. Moreover, the minimum inhibitory concentration (MIC) in series [2] came to 3.12 µg/mL (≈ 5.81 µM). In series [3], the viability at 24 h, 10 ug/100 ul was 79%. The viability at 72 h, 10 ug/100 ul in series [4] was determined as 63%. Also, in series [5], the viability at 24 h, 1 ug/100 ul came out at 100%. In addition, in series [6], the viability at 72 h, 1 ug/100 ul was 100%. In the case of `CC(O)c1cc(F)ccc1Oc1nc2ccc(NC(=S)NCc3ccc(Cl)cc3)cc2cc1Cc1ccccc1` (stereo not given), testing at 6.25 µg/mL in series [1] gave an inhibition of 37%. The same measure, in the same setting: as for `COc1ccc(NC(=S)Nc2ccc3nc(Oc4ccc(F)cc4C(C)O)c(Cc4ccccc4)cc3c2)cc1` (stereo not given), the figure is 27%; as for `COc1ccccc1NC(=S)Nc1ccc2nc(Oc3ccc(F)cc3C(C)O)c(Cc3ccccc3)cc2c1` (stereo not given), 14%.
